Experimental data from US9133206B2, “Benzodiazepine and pyridodiazepine derivatives” (AbbVie Inc., priority 2010, dated 2015).
pEC50: −log10 of the molar value.

Tested on: SK-N-SH human neuroblastoma cells
Test: Serum Deprivation/JC-1 Mitochondrial Membrane Potential (MMP) Assay
Assay type: cell-based
Conditions: for pEC50: serum deprivation ~18 hours, JC-1 ratio normalized to peak value for 10 μM dimebolin, single curve fit to mean data of n=2-3; for Emax / JC-1 max %: percent maximal intensity in JC-1 ratio normalized to peak value for 10 μM dimebolin; for Emax / activation at 3 µM / JC-1 max %: serum deprivation; for Emax: read-out: JC-1 max %; for activation at 3 µM: single dose 3 μM, JC-1 ratio normalized to peak value for 10 μM dimebolin (n=2-4), read-out: JC-1 max % (@ 3 μM)
In short: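 SK-N-SH cells serum-deprived ~18 h with compound, then stained with JC-1 for 40 min at 37 °C; red (560/595 nm) to green (485/535 nm) ratio reports membrane potential. Response normalized to peak from 10 μM dimebolin; EC50 from fit to mean of n=2–3, or single-dose 3 μM; DMSO ≤1%.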

Row | SMILES | pEC50 (Homo sapiens, SK-N-SH, 18 h) | Emax (Homo sapiens, SK-N-SH) [%] | also measured
1 | O=C(c1ccc(Br)cc1)N1CCC2CN(Cc3ccccc3)CCN2c2ccccc21 (centres unmarked) [Example 41, (3-benzyl-2,3,4,4a,5,6-hexahydropyrazino[1,2-a][1,5]benzodiazepin-7(1H)-yl)(4-bromophenyl)methanone] | 5.33 | 186 | –
2 | Clc1ccc(CCN2Cc3ccccc3N3CCN(Cc4ccccc4)CC3C2)cn1 (centres unmarked) [Example 63, 3-benzyl-6-[2-(6-chloropyridin-3-yl)ethyl]-1,2,3,4,4a,5,6,7-octahydropyrazino[1,2-a][1,4]benzodiazepine] | 5.71 | 173 | –
3 | CC(C)CN1Cc2ccccc2N2CCN(Cc3ccccc3)CC2C1 (centres unmarked) [Example 148, 3-benzyl-6-isobutyl-1,2,3,4,4a,5,6,7-octahydropyrazino[1,2-a][1,4]benzodiazepine] | – | – | activation at 3 µM (Homo sapiens): 38%
4 | c1ccc(CN2CCN3c4ccccc4CN(Cc4ccccc4)CC3C2)cc1 (centres unmarked) [Example 7, 3,6-dibenzyl-1,2,3,4,4a,5,6,7-octahydropyrazino[1,2-a][1,4]benzodiazepine] | < 4.52 | 24 | –
5 | CCCCN1Cc2ccccc2N2CCN(Cc3ccccc3)CC2C1 (centres unmarked) [Example 129, 3-benzyl-6-butyl-1,2,3,4,4a,5,6,7-octahydropyrazino[1,2-a][1,4]benzodiazepine] | – | – | activation at 3 µM (Homo sapiens): 40%
6 | O=C(NCc1ccncc1)N1Cc2ccccc2N2CCN(Cc3ccccc3)CC2C1 (centres unmarked) [Example 155, 3-benzyl-N-(pyridin-4-ylmethyl)-1,2,3,4,4a,5-hexahydropyrazino[1,2-a][1,4]benzodiazepine-6(7H)-carboxamide] | – | – | activation at 3 µM (Homo sapiens): 75%
7 | Cc1cc(C(=O)N2Cc3ccccc3N3CCN(Cc4ccccc4)CC3C2)c(C)n1C (centres unmarked) [Example 95, (3-benzyl-1,2,3,4,4a,5-hexahydropyrazino[1,2-a][1,4]benzodiazepin-6(7H)-yl)(1,2,5-trimethyl-1H-pyrrol-3-yl)methanone] | 6.55 | 189 | –
8 | O=C(Cc1ccc(Cl)cc1)N1CCC2CN(Cc3ccccc3)CCN2c2ncccc21 (centres unmarked) [Example 53, 1-(9-benzyl-7,7a,8,9,10,11-hexahydropyrazino[1,2-d]pyrido[3,2-b][1,4]diazepin-5(6H)-yl)-2-(4-chlorophenyl)ethanone] | 5.01 | 210 | –
9 | CN1CCN2c3ccccc3CN(Cc3ccc(Br)cc3)CC2C1 (centres unmarked) [Example 57, 6-(4-bromobenzyl)-3-methyl-1,2,3,4,4a,5,6,7-octahydropyrazino[1,2-a][1,4]benzodiazepine] | 4.99 | 167 | –
10 | Brc1ccc(CN2Cc3ccccc3N3CCN(Cc4ccccc4)CC3C2)cc1 (single isomer, unassigned; (-)) [Example 18, (−)-3-benzyl-6-(4-bromobenzyl)-1,2,3,4,4a,5,6,7-octahydropyrazino[1,2-a][1,4]benzodiazepine] | – | – | JC-1 max %: 178%; pEC50: 5.57
11 | CCC(=O)N1Cc2ccccc2N2CCN(Cc3ccccc3)CC2C1 (centres unmarked) [Example 106, 1-(3-benzyl-1,2,3,4,4a,5-hexahydropyrazino[1,2-a][1,4]benzodiazepin-6(7H)-yl)propan-1-one] | – | – | activation at 3 µM (Homo sapiens): 81%
12 | CN(C)CCCNC(=O)N1Cc2ccccc2N2CCN(Cc3ccccc3)CC2C1 (centres unmarked) [Example 164, 3-benzyl-N-[3-(dimethylamino)propyl]-1,2,3,4,4a,5-hexahydropyrazino[1,2-a][1,4]benzodiazepine-6(7H)-carboxamide] | – | – | activation at 3 µM (Homo sapiens): 93%
13 | O=C(CCN1CCCC1)N1Cc2ccccc2N2CCN(Cc3ccccc3)CC2C1 (centres unmarked) [Example 91, 1-(3-benzyl-1,2,3,4,4a,5-hexahydropyrazino[1,2-a][1,4]benzodiazepin-6(7H)-yl)-3-(pyrrolidin-1-yl)propan-1-one] | – | – | activation at 3 µM (Homo sapiens): 78%
14 | O=C(NCC(=O)N1Cc2ccccc2N2CCN(Cc3ccccc3)CC2C1)c1ccco1 (centres unmarked) [Example 99, N-[2-(3-benzyl-1,2,3,4,4a,5-hexahydropyrazino[1,2-a][1,4]benzodiazepin-6(7H)-yl)-2-oxoethyl]-2-furamide] | 5.50 | 165 | –
15 | O=C(Nc1nccs1)N1Cc2ccccc2N2CCN(Cc3ccccc3)CC2C1 (centres unmarked) [Example 159, 3-benzyl-N-(1,3-thiazol-2-yl)-1,2,3,4,4a,5-hexahydropyrazino[1,2-a][1,4]benzodiazepine-6(7H)-carboxamide] | – | – | activation at 3 µM (Homo sapiens): 64%
16 | c1ccc(CN2CCN3c4ccccc4CN(c4ncccn4)CC3C2)cc1 (centres unmarked) [Example 9, 3-benzyl-6-(pyrimidin-2-yl)-1,2,3,4,4a,5,6,7-octahydropyrazino[1,2-a][1,4]benzodiazepine] | 5.59 | 158 | –
17 | O=C(c1ccoc1)N1Cc2ccccc2N2CCN(Cc3ccccc3)CC2C1 (centres unmarked) [Example 94, (3-benzyl-1,2,3,4,4a,5-hexahydropyrazino[1,2-a][1,4]benzodiazepin-6(7H)-yl)(3-furyl)methanone] | 5.56 | 172 | –

Row | SMILES | pEC50 (Homo sapiens, SK-N-SH, 18 h) | Emax (Homo sapiens, SK-N-SH) [%] | also measured
18 | Fc1ccc(CN2CCN3c4ncccc4N(CC4CC4)CCC3C2)cc1 (centres unmarked) [Example 64, 5-(cyclopropylmethyl)-9-(4-fluorobenzyl)-5,6,7,7a,8,9,10,11-octahydropyrazino[1,2-d]pyrido[3,2-b][1,4]diazepine] | 5.25 | 139 | –
19 | CC(C)(C)OC(=O)N1CCN2c3ccccc3CN(Cc3ccc(Br)cc3)CC2C1 (centres unmarked) [Example 66, tert-butyl 6-(4-bromobenzyl)-1,2,4a,5,6,7-hexahydropyrazino[1,2-a][1,4]benzodiazepine-3(4H)-carboxylate] | 5.32 | 192 | –
20 | c1ccc(CN2CCN3c4ccccc4CN(Cc4ccncc4)CC3C2)cc1 (centres unmarked) [Example 30, 3-benzyl-6-(pyridin-4-ylmethyl)-1,2,3,4,4a,5,6,7-octahydropyrazino[1,2-a][1,4]benzodiazepine] | 5.44 | 216 | –
21 | O=C(Cc1ccc(Cl)nc1)N1Cc2ccccc2N2CCN(Cc3ccccc3)CC2C1 (centres unmarked) [Example 60, 1-(3-benzyl-1,2,3,4,4a,5-hexahydropyrazino[1,2-a][1,4]benzodiazepin-6(7H)-yl)-2-(6-chloropyridin-3-yl)ethanone] | 5.38 | 224 | –
22 | CN1CCN2c3ccccc3CN(C(=O)N3CCOCC3)CC2C1 (centres unmarked) [Example 77, (3-methyl-1,2,3,4,4a,5-hexahydropyrazino[1,2-a][1,4]benzodiazepin-6(7H)-yl)(morpholin-4-yl)methanone] | 4.99 | 57 | –
23 | Fc1ccc(CN2CCN3c4ccccc4CN(Cc4ccc(Br)cc4)CC3C2)cc1 (centres unmarked) [Example 56, 6-(4-bromobenzyl)-3-(4-fluorobenzyl)-1,2,3,4,4a,5,6,7-octahydropyrazino[1,2-a][1,4]benzodiazepine] | 5.29 | 161 | –
24 | O=C(C1CC1)N1CCC2CNCCN2c2ncccc21 (centres unmarked) [Example 72, cyclopropyl(7,7a,8,9,10,11-hexahydropyrazino[1,2-d]pyrido[3,2-b][1,4]diazepin-5(6H)-yl)methanone] | 4.88 | 98 | –
25 | c1ccc(CN2CCN3c4ccccc4CNCC3C2)cc1 (centres unmarked) [Example 2, 3-benzyl-1,2,3,4,4a,5,6,7-octahydropyrazino[1,2-a][1,4]benzodiazepine] | 5.46 | 186 | –
26 | CCN(CCOC)C(=O)N1Cc2ccccc2N2CCN(Cc3ccccc3)CC2C1 (centres unmarked) [Example 157, 3-benzyl-N-ethyl-N-(2-methoxyethyl)-1,2,3,4,4a,5-hexahydropyrazino[1,2-a][1,4]benzodiazepine-6(7H)-carboxamide] | – | – | activation at 3 µM (Homo sapiens): 264%
27 | Oc1ccc(CN2Cc3ccccc3N3CCN(Cc4ccccc4)CC3C2)cc1 (centres unmarked) [Example 50, 4-[(3-benzyl-1,2,3,4,4a,5-hexahydropyrazino[1,2-a][1,4]benzodiazepin-6(7H)-yl)methyl]phenol] | 5.23 | 240 | –
28 | c1ccc(CN2CCN3c4ccccc4C[N+](Cc4ccccc4)(Cc4ccccc4)CC3C2)cc1 (centres unmarked) [Example 6, 3,6,6-tribenzyl-1,2,3,4,4a,5,6,7-octahydropyrazino[1,2-a][1,4]benzodiazepin-6-ium] | – | – | JC-1 max %: 148%; pEC50: 5.19
29 | Fc1ccc(CN2Cc3ccccc3N3CCN(Cc4ccccc4)CC3C2)cc1 (centres unmarked) [Example 17, 3-benzyl-6-(4-fluorobenzyl)-1,2,3,4,4a,5,6,7-octahydropyrazino[1,2-a][1,4]benzodiazepine] | 5.35 | 183 | –
30 | O=C(N1CCOCC1)N1Cc2ccccc2N2CCN(c3ccc(Cl)cc3)CC2C1 (centres unmarked) [Example 82, [3-(4-chlorophenyl)-1,2,3,4,4a,5-hexahydropyrazino[1,2-a][1,4]benzodiazepin-6(7H)-yl](morpholin-4-yl)methanone] | 5.29 | 127 | –
31 | O=C(/C=C/c1ccccc1)N1Cc2ccccc2N2CCN(Cc3ccccc3)CC2C1 (centres unmarked) [Example 20, (2E)-1-(3-benzyl-1,2,3,4,4a,5-hexahydropyrazino[1,2-a][1,4]benzodiazepin-6(7H)-yl)-3-phenylprop-2-en-1-one] | 5.26 | 133 | –
32 | O=C1C2CNCCN2c2ccccc2CN1Cc1ccc(Br)cc1 (centres unmarked) [Example 70, 6-(4-bromobenzyl)-2,3,4,4a,6,7-hexahydropyrazino[1,2-a][1,4]benzodiazepin-5(1H)-one] | 5.02 | 156 | –
33 | O=C(c1ccno1)N1Cc2ccccc2N2CCN(Cc3ccccc3)CC2C1 (centres unmarked) [Example 90, (3-benzyl-1,2,3,4,4a,5-hexahydropyrazino[1,2-a][1,4]benzodiazepin-6(7H)-yl)(1,2-oxazol-5-yl)methanone] | – | – | activation at 3 µM (Homo sapiens): 114%
34 | c1ccc(CN2CCN3c4ccccc4CN(Cc4ccc5ccccc5c4)CC3C2)cc1 (centres unmarked) [Example 124, 3-benzyl-6-(2-naphthylmethyl)-1,2,3,4,4a,5,6,7-octahydropyrazino[1,2-a][1,4]benzodiazepine] | 5.46 | 193 | –
